“Also recorded” adds a separate entry of the source.
How the values were obtained:
apoE3 [1] = target: T1, apoE3 (Homo sapiens, UniProt P02649); assay: Emulsion binding assay, apoE3
T1 construct: made in house
Method: Preparation of emulsion particles. Triolein (160 mg) and L-alpha-Phosphatidylcholine (40 mg) are combined and dried under nitrogen. After the addition of 8 mls of buffer (10 mM Tris, 100 mM KCl, 1 mM EDTA, pH 8.0), the mixture is sonicated in a water bath to obtain a heterogeneous mix of emulsion particles. The particles are harvested by ultracentrifugation (TLA 100.2 rotor, 30,000 rpm for 30 minutes) and the subsequent lipid cake is removed by tube slicing and resuspended in 100 μt 20 mM Phosphate Buffer (PB). Triolein and phospholipid content are measured and total emulsion particle concentration is determined.
Radiolabelling Freshly denatured and renatured Apolipoprotein E3 and E4 are radiolabelled using Bolton-Hunter Reagent [^125I] (ICN). Specific Activity is determined using Lowry method and Gamma 8000 counter.
Binding Affinity Assay. […] In glass tubes, 25 μg of protein (with iodinated tracer) was reduced with 1% β-mercaptoethanol. Two hundred and fifty μg of emulsion particles and 2.5 μl of compound (10 mM stock) were added and the final mixture was brought up to 250 μl with 20 mM phosphate buffer (PB). The reaction mixture was then incubated in a 37° C. water bath for 2 hours before being transferred to 1.5 ml ultracentrifuge tubes. Finally, 50 μl of 60% sucrose was mixed with the sample and 400 μl 20 mM PB was carefully layered on top. Using a TLA 100.2 rotor, the tube was spun at 30,000 rpm for 30 minutes and subsequently cut to separate the floating emulsion particle layer from the free protein at the bottom of the tube. These fractions were then combined with the respective half of the actual tube and counted using a Gamma-8000. […] Protein-only assays yielded 94.5-96.6% of protein accumulated in the bottom portion of the tube. In emulsion particle-only assays, 94% of emulsion particles accumulated in the top portion of the tube.
Preparation of Emulsion Particles and VLDL Binding Affinity Assay. VLDL-like emulsion particles were prepared using triolein (160 mg) and L-alpha-phosphatidylcholine (40 mg), as described. Dong and Weisgraber (1996) supra; and Dong et al. (1994) J. Biol. Chem. 269:22358-22365.

apoE3 [2] = assay: Aβ production assay, B103-APP cells incubated with apoE3; format: cell-based, rat; conditions: FIG. 22
Method: Aβ production assay. Stable neuroblastoma B103 cell lines transfected with a wildtype hAPP cDNA construct (B 103-APP) were selected by growing them in Dulbecco's modified Eagle's medium (DMEM) containing 10% fetal calf serum (FBS) and 400 μg/ml G418. A cell line expressing APP at similar levels in mouse brains has been identified by RNase protection assay (RPA) and was used in the studies described below. To determine Aβ production, B103-APP cells were incubated with serum-free minimal essential medium (MEM) containing N2 supplements with or without apoE isoforms for 24 h at 37° C. After incubation, 50 μl of medium was collected and assayed for Aβ levels with an ELISA method. The cells were lysed, and cellular proteins were determined by the Lowry method. AP production was normalized to cellular protein.
Cell Culture. Rat neuroblastoma B103 cells stably expressing human wildtype APP (hAPP695wt) (Xu et al. ((1999) Proc. Natl. Acad. Sci. USA 96:7547-7552; Esposito, et al. (2004) J. Neurochem. 91:1260-1274) were generated in Dr. Lennart Mucke's laboratory at the Gladstone Institute of Neurological Disease and maintained in Dulbecco's modified Eagle's medium (DMEM) (GIBCO, Grand Island, N.Y.) containing 400 μg/ml G418, 10% fetal bovine serum, and 5% horse serum at 37° C. Twenty-four hours after plating into 48-well plates (1×10^5 cells per well), cells were washed twice with serum-free DMEM and cultured for another 24 h in DMEM containing 1% N-2 supplement (GIBCO) to induce differentiation. The cells were treated with either β-VLDL (25 μg/ml cholesterol), recombinant human apoE isoform-enriched β-VLDL (7.5 μg/ml apoE and 25 μg/ml cholesterol), or recombinant human apoE (7.5 μg/ml apoE) in fresh DMEM containing 1% N-2 supplement for an additional 24 h. In some experiments, RAP (25 nM or 1 μM) was added to the cells 1 h before apoE treatment.
Aβ Assay. Aβ secreted into the medium was detected with a sandwich enzyme-linked immunosorbent assay (ELISA), using mAb 266 as a capturing antibody and 3D6 as a detecting antibody, as described. Johnson-Wood et al. ((1997) Proc. Natl. Acad. Sci. USA 94:1550-1555). Aβ was quantified from a standard curve (Aβ42; Bachem, Torrance, Calif.) and normalized by total cellular protein.

YFP-apoE4-CFP cells = assay: MTT cytotoxicity assay; format: cell-based, mouse; conditions: 5-10 μM
Description: Since the emission spectrum of CFP (460-520 nm) overlaps with the excitation spectrum of YFP (480-520 nm), FLEXstation (Molecular Devices) can be used to measure FRET in living cells expressing YFP-apoE3-CFP or YFP-apoE4-CFP in a high throughput manner. […] Thus, the ratio of FRET to CFP emission in cells expressing YFP-apoE4-CFP is much higher than that in those expressing YFP-apoE3-CFP (FIG. 31). […] Since the FLEXstation can read FRET in both cells and the culture media treated without or with various small molecules, this assay allows one to know whether a small molecule affects apoE4 domain interaction only in the medium (“medium FRET”) or also inside the cell (“intracellular FRET”). In addition, after measurement of the intracellular FRET, the cells can be incubated further with MTT to determine the cytotoxicity of the compound. Thus, the cell-based FRET assay can simultaneously provide three sets of data-intracellular FRET, medium FRET, and cytotoxicity.

Neuro-2a cells [3] = assay: Aβ-induced lysosomal leakage (cytosolic β-hexosaminidase); format: cell-based, mouse
Method: The cytosolic fraction was obtained by ultracentrifugation, and the cytosolic β-hexosaminidase activity was measured.
Quantitation of the lysosomal enzyme β-hexosaminidase activity in the cytosol indicates lysosomal leakage. […] After incubation the cells were washed and cytosolic fractions were isolated as described in Materials and Methods. The enzymatic activity of β-hexosaminidase was assayed in 20 μg of cytosolic protein for each sample.
Lysosomal leakage was quantitated by assaying cytosolic 0-hexosaminidase activity. […] Conditioned media were prepared as described above. Apoptosis was quantitated by measuring DNA fragmentation.

Neuro-2a cells [4] = assay: Aβ-induced apoptosis (DNA fragmentation assay); format: cell-based, mouse
Method: DNA Fragmentation Assay—DNA fragmentation of apoptotic cells was determined with Cell Death Detection ELISA kits (Roche, Indianapolis, Ind.).
FIG. 38. […] Control cells were not treated with Aβ1-42. Apoptotic cell death was measured with a DNA fragmentation assay. Values are the mean±S.D. of three separate experiments.
FIGS. 39A and 39B. […] Lysosomal leakage was quantitated by assaying cytosolic 0-hexosaminidase activity. […] Conditioned media were prepared as described above. Apoptosis was quantitated by measuring DNA fragmentation.

T1 sequence (P02649 19-317): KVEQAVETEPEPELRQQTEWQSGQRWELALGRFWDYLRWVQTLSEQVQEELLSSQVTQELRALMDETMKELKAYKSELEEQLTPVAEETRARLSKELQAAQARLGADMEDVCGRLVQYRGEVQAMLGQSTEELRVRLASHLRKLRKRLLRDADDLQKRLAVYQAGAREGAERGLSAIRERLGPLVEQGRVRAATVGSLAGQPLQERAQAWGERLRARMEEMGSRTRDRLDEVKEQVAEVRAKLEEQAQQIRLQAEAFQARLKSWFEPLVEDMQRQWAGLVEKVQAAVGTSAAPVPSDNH

With `O=S(=O)([O-])c1ccc2c(c1)c(Nc1ccc(S(=O)(=O)O)cc1)cc1c2nc2ccccc2[n+]1-c1ccccc1` [GIND-25, azocarmine-G] the “binding of apoE3 to the emulsion particles” value (apoE3 [1]) was “no significant effect”, the “E3 + compound, % bound” value (apoE3 [1]; follow-up assay) was 30% and the “E3 + compound, % free” value (apoE3 [1]; follow-up assay) was 70%. For the same molecule, the “effect on apoE3 (Aβ production)” value (apoE3 [2]) was “no effect”, the “cytotoxicity (MTT assay)” value (YFP-apoE4-CFP cells) was “did not cause significant cytotoxicity” and the “lysosomal leakage, cells with medium alone or medium containing apoE3 plus Aβ1-42” value (Neuro-2a cells [3]) was “no significant effect”. For the same molecule, the “apoE4 potentiation of Aβ-induced lysosomal leakage” value (Neuro-2a cells [3]; 5 μM, apoE4 conditioned medium, Aβ1-42 20 μM) was “block; also recorded: abolish”, the “apoptosis, cells with medium alone or medium containing apoE3 plus Aβ1-42” value (Neuro-2a cells [4]) was “no significant effect” and the “apoE4 potentiation of Aβ-induced apoptosis” value (Neuro-2a cells [4]; apoE4 conditioned medium, Aβ1-42) was “block; also recorded: abolish”.

Reference: patent US7964598B2 (The J. David Gladstone Institutes, priority 1995, dated 2011)
